Consider six molecules from US11072601B2, “μ-opioid receptor agonist and preparation method therefor and use thereof in field of medicine” (SHANGHAI SYNERGY PHARMACEUTICAL SCIENCES CO., LTD., priority 2017, dated 2021).

SMILES strings stand for the structures.

Data set [1] concerns the target T1, μ opioid receptor (MOR) (Homo sapiens, UniProt P35372).
T1 construct: host or cells: HEK293
The data set can be described thus: cell-based. As to conditions: HEK293 stably expressing μ opioid receptor, FLIPR calcium.

Data set [2] deals with T2, β-arrestin signaling pathway of MOR (Homo sapiens, UniProt P35372).
T2 construct: host or cells: HEK293 (PathHunter cell line)
Nature of the data set: cell-based. As to conditions: PathHunter HEK293 cells, relative to endorphin MAX control.

Data set [3] in a line: Pharmacokinetic test in rats, intravenous. The data set is classed as in vivo. As to conditions: male, SD, rat, plasma, intravenous 1 mg/kg; for AUC: read-out: curve area (AUC); for half-life: read-out: half life (T½) (converted); for Cmax: read-out: plasma concentration (Cmax). The source says:
8-week-old male SD rats weighing 200-300 g were used as experimental animals, and LC/MS/MS method was used to determine the drug concentration in plasma at different times after the administration of the compound of Example H01, the compound of Example H04, the compound of Example H05, the compound of Example H07, the compound of Example H16, the compound of Example H17, the compound of Example H18, the compound of Example H21, and the compound of Example H24. The pharmacokinetic behavior of the compounds of the present invention in rats was studied, and its pharmacokinetic characteristics were evaluated.
A certain amount of the compounds were weighed, and dissolved in ethanol/castor oil/water=10/10/80 to form a uniform solution.
The above compounds were administered intravenously to rats at a dose of 1 mg/kg, and 0.2 ml of blood was collected from the orbit at 0.083, 0.25, 0.5, 1.0, 2.0, 4.0, 6.0, 8.0, 12.0, 24.0 hours before and after administration, and placed in an anticoagulant tube, the plasma was separated by centrifugation at 6,000 rpm for 10 minutes at 4° C., and stored at −80° C.
50 μL of plasma was taken at different times, 150 μL of acetonitrile solution containing internal standard tolbutamide (200 ng/mL) was added, the system was mixed and shaked for 5 minutes, 12000 rpm, centrifuged for 5 minutes, 100 μL of supernatant was removed, and then mixed with 200 μL of water, then the sample was loaded for analysis. The internal standard tolbutamide solid (Aladdin, T129578) powder was dissolved in DMSO to prepare into a 1 mg/mL stock solution. The stock solution was diluted with 100% acetonitrile to obtain a solution of 200 ng/mL as a protein precipitator.
The liquid chromatography system was an LC-20AD UFLC high performance liquid chromatography system (Shimadzu, LC-20AD). The mass spectrometry system was an AB Sciex API4000 triple quadrupole mass spectrometer equipped with an electrospray ionization source (ESI) (Applied Biosystems, Canada). The software used to control the liquid-mass coanalyzer and quantitative analysis was Analyst 1.6 (Applied Biosystems, Canada), and the pharmacokinetic parameters were analyzed using WinNonlin (version 5.2, Pharsight, Mountain View, Calif.) non-compartment model.
Liquid chromatographic separation was performed using AQ-C18 column (50×2.1 mm, internal diameter of […]). The column temperature was maintained at room temperature.
The compound to be tested was dissolved in DMSO to prepare a stock solution with a concentration of 1 mg/mL, and diluted with 70% acetonitrile to obtain a series of standard working solutions with concentrations of 30, 10, 3, 1, 0.3, 0.1, 0.03, and 0.01. μg/mL, and a series of standard quality control solutions (24, 8 and 0.03 μg/mL). 5 μL of standard solution and 45 μL of blank plasma matrix were mixed uniformity to obtain standard solutions (3000, 1000, 300, 100, 30, 10, 3, and 1 ng/mL) and quality control standards (plasma samples: 2400, 800, 80, and 3 ng/mL) at each concentration point of the standard curve.

T2 sequence (P35372 whole entry): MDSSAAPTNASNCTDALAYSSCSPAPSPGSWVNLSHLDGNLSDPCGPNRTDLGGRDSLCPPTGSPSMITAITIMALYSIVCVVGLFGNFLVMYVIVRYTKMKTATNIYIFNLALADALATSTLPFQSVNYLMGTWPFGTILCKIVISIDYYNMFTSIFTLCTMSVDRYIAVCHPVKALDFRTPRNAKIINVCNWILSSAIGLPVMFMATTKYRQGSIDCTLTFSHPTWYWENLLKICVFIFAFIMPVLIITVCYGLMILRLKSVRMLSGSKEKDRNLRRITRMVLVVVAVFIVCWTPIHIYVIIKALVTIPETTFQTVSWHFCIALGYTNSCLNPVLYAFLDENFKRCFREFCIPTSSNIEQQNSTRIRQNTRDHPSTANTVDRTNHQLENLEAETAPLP
T1 sequence (P35372 whole entry, species assumed): as the sequence (P35372 whole entry) above

As to `FC(F)(F)Oc1ccc(Cl)cc1CNCCC1(c2ccccn2)CCOC2(CCCC2)C1` (stereo not drawn) [Example H17, (5-chloro-2-trifluoromethoxybenzyl)-[2-(9-(pyridin-2-yl)-6-oxaspiro[4.5]decan-9-yl)ethyl]amine], the EC50 (commonly the midpoint of the concentration-response curve) in data set [1] was determined as 8.68 nM. Moreover, in data set [2], the Emax – broadly, the greatest response seen or fitted, relative to the assay's reference – came out at 1.78%. Further, in data set [3], the area under the curve (AUC) (in general, concentration integrated over time) amounted to 482 ± 31.8 ng·h/mL; the half-life (commonly how long it takes for the measured level to halve) is 1.45 ± 0.15 h; the Cmax worked out at 388 ± 23.3 ng/mL.

Consider `Cc1c(Cl)cccc1CNCCC1(c2ccccn2)CCOC2(CCCC2)C1` (stereo not drawn) [Example H04, (3-chloro-2-methylbenzyl)-[2-(9-(pyridin-2-yl)-6-oxaspiro[4.5]decan-9-yl)ethyl]amine], for which the EC50 in data set [1] is 6.05 nM. The molecule further registered an Emax in data set [2] of 6.12%. In data set [3], the AUC was determined as 494 ± 34 ng·h/mL, the half-life is 2.92 ± 0.02 h and the Cmax was 378 ± 17.5 ng/mL.

Consider `Fc1ccc(C2(CCNCc3ccccc3OC(F)(F)F)CCOC3(CCCC3)C2)nc1` (stereo not drawn) [Example H21, {2-[9-(5-fluoro-pyridin-2-yl)-6-oxa-spiro[4.5]decan-9-yl]-ethyl}-(2-(trifluoromethoxy)-phenmethyl)-amine], for which the concentration giving a half-maximal response (EC50) in data set [1] was 4.02 nM. The molecule further registered an Emax in data set [2] of 0.08%. In addition, in data set [3], the area under the curve (AUC) amounted to 382 ± 10.8 ng·h/mL, the half-life was 2.05 ± 0.25 h and the Cmax stood at 283 ± 13.3 ng/mL.

As for `FC(F)Oc1ccsc1CNCCC1(c2ccccn2)CCOC2(CCCC2)C1` (stereo not drawn) [Example H18, ((3-difluoromethoxythiophen-2-yl)methyl)-[2-(9-(pyridin-2-yl)-6-oxaspiro[4.5]decan-9-yl)ethyl]a mine], the concentration giving a half-maximal response (EC50) in data set [1] turned out to be 7.32 nM. Further, the maximal effect (Emax) in data set [2] came out at 0.48%. Also, in data set [3], the AUC turned out to be 582 ± 11.8 ng·h/mL, the half-life was 3.45 ± 0.55 h and the Cmax stood at 483 ± 23.3 ng/mL.

In the case of `FC(F)Oc1ccccc1CNCCC1(c2ccccn2)CCOC2(CCCC2)C1` (stereo not drawn) [Example H16, (2-difluoromethoxybenzyl)-[2-(9-(pyridin-2-yl)-6-oxaspiro[4.5]decan-9-yl)ethyl]amine], the EC50 in data set [1] is 9.06 nM. In data set [2], this molecule displayed an Emax of 3.12%. In addition, in data set [3], the AUC amounted to 1190 ± 54 ng·h/mL, the half-life was 5.3 ± 0.02 h and the Cmax was found to be 820 ± 37.5 ng/mL.

Regarding `CNc1ccsc1C(=O)NCCC1(c2ccccn2)CCOC2(CCCC2)C1` (stereo not drawn) [Example H24, 3-methylamino-thiophene-2-carboxylic acid [2-(9-pyridin-2-yl-6-oxa-spiro[4.5]decan-9-yl)-ethyl]-amide], the EC50 in data set [1] came to 10.7 nM. In data set [2], this molecule gave an Emax of 2.76%. In data set [3], the AUC came out at 682 ± 21 ng·h/mL, the half-life was 3.05 ± 0.15 h and the Cmax turned out to be 583 ± 23.3 ng/mL.
